The target in this assay is Enoyl-[acyl-carrier-protein] reductase [NADH] (Mycobacterium tuberculosis, UniProt P9WGR1, S94A).

These results are taken from ChEMBL document CHEMBL2321872, “Synthesis and antimycobacterial activity of 2,1'-dihydropyridomycins” (ACS Med Chem Lett, 2013).

For orientation: Ki means a dissociation constant, usually derived from enzyme kinetics or from competition with a known ligand. Low readings indicate a stronger hold on the target, high ones a looser hold on the target.

For the molecule `CC(C)[C@H]1OC(=O)[C@H](C)[C@H](O)[C@H](Cc2cccnc2)NC(=O)[C@@H](NC(=O)c2ncccc2O)[C@@H](C)OC1=O`, the inhibition constant Ki was 71 µM. In other words, the double-digit micromolar range.
